Assay results reported in patent US20260226105A1, “Antimicrobial And Antibiofilm Peptides Sequences With Metal-Binding Motifs” (The Trustee of the University of Pennsylvania, priority 2021, published 2026).
≈ marks a conversion by molar mass, not a printed value. Where “and” joins values, the source holds several entries; their conditions need not be identical. Equal values may be shown once. Read-outs that look alike come from different tables or passages of the source. Ends that are not written are not given here.

Columns and labels:
[1] = test system: E. coli (KpC1812446); conditions: agent alone, BM2 minimal medium
[2] = test system: K. pneumoniae (ATCC13883)
[3] = test system: E. coli (KpC+1812446) planktonic cells; conditions: for MBIC Antibiotic alone / MBIC Antibiotic + Peptide: Table 8, planktonic cells; for FICI: Planktonic
[4] = test system: E. coli (KpC+1812446) biofilm; conditions: for MBIC Antibiotic alone / MBIC Antibiotic + Peptide: Table 7, biofilm; for FICI: Biofilm
[5] = test system: E. coli (KpC1812446); test: microbe, parasite or virus in culture; conditions: Escherichia coli
[6] = test system: K. pneumoniae (ATCC13883); test: microbe, parasite or virus in culture; conditions: Klebsiella pneumoniae
[7] = test system: E. coli (ATCC 25922)
[8] = test system: S. aureus (ATCC 25923)
[9] = test system: E. coli (KpC+ 1812446); conditions: MH broth, 12 h, 37° C.
[10] = test system: E. coli (KpC+ 2101123); conditions: for MIC in Cu(II) supplemented medium: Cu(II) supplemented medium (0.25 μM); for MIC: MH broth, 12 h, 37° C.
[11] = test system: K. pneumoniae (KpC+ 1825971); conditions: for MIC in Cu(II) supplemented medium: Cu(II) supplemented medium (0.25 μM); for MIC: MH broth, 12 h, 37° C.
[12] = test system: K. pneumoniae (ATCC 13883)
[13] = test system: P. aeruginosa (ATCC 27853)
[14] = test system: MRSA (3730529)
[15] = test system: E. coli (KpC1812446); conditions: Table 3, agent alone
[16] = test system: K. pneumoniae (ATCC13883); remark: listed apart in the source
[17] = test system: E. coli KpC+1812446; format: in vivo, mice; conditions: for in vivo toxicity: infected Balb/C mice, 5 and 10 mg·Kg^−1
Description: Male Balb/C (18-20 g) mice from the Biotério Central do Campus da USP in Ribeirão Preto, São Paulo, were kept in groups of 5 per cage at 22° C. with normal cycles of light and free access to food and water. The care and use of the animals were approved by the Ethics Committee of Universidade Católica Dom Bosco number 019/2016. We assessed the ability of the peptides to protect the mice from lethal systemic infections induced with E. coli KpC+1812446. The mice (n=40) were randomly placed into eight groups of five mice each, and each mouse was injected intraperitoneally with 200 μL of saline solution containing 2×10^7 CFU of E. coli KpC+1812446. Intraperitoneal treatment with 5 or 10 mg·Kg^−1 of each peptide was initiated after one hour of infection and repeated at 24 h intervals for seven days^61. Gentamicin at 10 mg·Kg^−1 of body weight and normal saline were used as positive and negative controls, respectively.

[18] = test system: E. coli MG1655
[19] = test system: E. coli (ATCC25922); conditions: Table 3, agent alone
[20] = test system: K. pneumoniae (KpC1825971); conditions: Table 3, agent alone
[21] = test system: E. coli (ATCC 25922); conditions: agent alone, BM2 minimal medium
[22] = test system: K. pneumoniae (KpC1825971); conditions: agent alone, BM2 minimal medium
[23] = agent alone, BM2 minimal medium
[24] = antibiotic in combination with CM15
[25] = antibiotic in combination with GGH-CM15
[26] = antibiotic in combination with VIH-CM15
[27] = Cu(II) in MH broth, determined in our laboratory
[28] = Cu(II) supplemented medium (0.25 μM)

Compound: CC1(C)S[C@@H]2[C@H](NC(=O)[C@H](N)c3ccccc3)C(=O)N2[C@H]1C(=O)O [AmP, ampicillin]
- MBIC [1]: >183 µM
- MBIC [2, 23]: >183 µM
- MBIC Antibiotic alone [3]: 366 µM
- MBIC Antibiotic + Peptide [3, 24]: 366 µM
- MBIC Antibiotic + Peptide [3, 25]: 366 µM
- MBIC Antibiotic + Peptide [3, 26]: 366 µM
- MBIC Antibiotic alone [4]: 366 µM
- MBIC Antibiotic + Peptide [4, 24]: 366 µM
- MBIC Antibiotic + Peptide [4, 25]: 366 µM
- MBIC Antibiotic + Peptide [4, 26]: 366 µM
- MIC [5]: > 183 µM
- MIC [6]: > 183 µM

Compound: O=C(N[C@H](CO)[C@H](O)c1ccc([N+](=O)[O-])cc1)C(Cl)Cl [CHL, chloramphenicol]
- MBIC [1]: >198 µM
- MBIC [2, 23]: >198 µM
- MBIC Antibiotic alone [3]: 396 µM
- MBIC Antibiotic + Peptide [3, 24]: 0.8 µM
- MBIC Antibiotic + Peptide [3, 25]: 3 µM
- MBIC Antibiotic + Peptide [3, 26]: 0.8 µM
- MBIC Antibiotic alone [4]: 396 µM
- MBIC Antibiotic + Peptide [4, 24]: 396 µM
- MBIC Antibiotic + Peptide [4, 25]: 396 µM
- MBIC Antibiotic + Peptide [4, 26]: 396 µM
- MIC [5]: > 198 µM
- MIC [6]: > 198 µM

Compound: O.O.O.O.O.O=S(=O)([O-])[O-].[Cu+2] [Cu(II) ions, CuSO4·5H2O]
- toxic level [7, 27]: 7.8 mM
- toxic level [8, 27]: 7.8 mM

Compound: C[C@@H](O)[C@H]1C(=O)N2C(C(=O)O)=C(S[C@@H]3CN[C@H](C(=O)N(C)C)C3)[C@H](C)[C@H]12 [MER, meropenem]
- MBIC [1]: 0.6 µM
- MBIC [2, 23]: >167 µM
- MBIC Antibiotic alone [3]: 0.6 µM
- MBIC Antibiotic + Peptide [3, 24]: 0.6 µM
- MBIC Antibiotic + Peptide [3, 25]: 0.16 µM
- MBIC Antibiotic + Peptide [3, 26]: 0.3 µM
- MBIC Antibiotic alone [4]: 0.6 µM
- MBIC Antibiotic + Peptide [4, 24]: 0.16 µM
- MBIC Antibiotic + Peptide [4, 25]: 0.013 µM
- MBIC Antibiotic + Peptide [4, 26]: 0.04 µM
- MIC [5]: 0.6 µM (≈ 0.23 µg/mL)
- MIC [6]: > 167 µM

Compound: [H]/N=C(/N)N[C@H]1[C@H](O)[C@@H](O)[C@H](O[C@@H]2O[C@@H](C)[C@](O)(C=O)[C@H]2O[C@@H]2O[C@@H](CO)[C@H](O)[C@@H](O)[C@@H]2NC)[C@@H](N/C(N)=N\[H])[C@@H]1O [STR, streptomycin]
- MBIC [1]: 14 µM
- MBIC [2, 23]: >110 µM
- MBIC Antibiotic alone [3]: 14 µM
- MBIC Antibiotic + Peptide [3, 24]: 4 µM
- MBIC Antibiotic + Peptide [3, 25]: 14 µM
- MBIC Antibiotic + Peptide [3, 26]: 0.4 µM
- MBIC Antibiotic alone [4]: 14 µM
- MBIC Antibiotic + Peptide [4, 24]: 4 µM
- MBIC Antibiotic + Peptide [4, 25]: 4 µM
- MBIC Antibiotic + Peptide [4, 26]: 7 µM
- MIC [5]: 14 µM (≈ 8.14 µg/mL)
- MIC [6]: > 110 µM

Compound: COc1cc(Cc2cnc(N)nc2N)cc(OC)c1OC [TRI, trimethoprim]
- MBIC [1]: >220 µM
- MBIC [2, 23]: >220 µM
- MBIC Antibiotic alone [3]: 440 µM
- MBIC Antibiotic + Peptide [3, 24]: 55 µM
- MBIC Antibiotic + Peptide [3, 25]: 110 µM
- MBIC Antibiotic + Peptide [3, 26]: 220 µM
- MBIC Antibiotic alone [4]: 440 µM
- MBIC Antibiotic + Peptide [4, 24]: 440 µM
- MBIC Antibiotic + Peptide [4, 25]: 220 µM
- MBIC Antibiotic + Peptide [4, 26]: 220 µM
- MIC [5]: > 220 µM
- MIC [6]: > 220 µM

Compound: GGHGLFDVIKKVASVIGGL-NH2 [GGH-Citropin1.1]
- MIC in Cu(II) supplemented medium ([7]; ATCC 25922): 34 µM
- MIC ([7]; ATCC 25922, 12 h): 34 µM
- MIC [9]: 34 µM
- MIC in Cu(II) supplemented medium [10]: 9 µM
- MIC [10]: 9 µM
- MIC in Cu(II) supplemented medium [11]: >34 µM
- MIC [11]: >34 µM
- MIC ([12]; ATCC 13883, 12 h): 34 µM
- MIC ([13]; ATCC 27853, 12 h): >34 µM
- MIC ([14]; 3730529, 12 h): 17 µM
- MIC in Cu(II) supplemented medium ([8]; ATCC 25923): 9 µM
- MIC ([8]; ATCC 25923, 12 h): 9 µM
- MIC [15]: >34 µM
- MIC ([16]; ATCC13883): >34 µM
- MBIC [1]: >34 µM
- MBIC ([2]; ATCC13883): >34 µM

Compound: GGHKWKLFKKIGAVLKVL [GGH-CM15]
- mouse deaths ([17]; 5 and 10 mg·Kg^−1 intraperitoneal): all the mice died on the first day
- in vivo toxicity [17]: did not decrease the toxicity of CM15
- MIC in Cu(II) supplemented medium [7, 28]: 2 µM
- MIC ([7]; MH broth, 12 h, 37° C.): 2 µM
- MIC [9]: 2 µM
- MIC in Cu(II) supplemented medium [10]: 2 µM
- MIC [10]: 2 µM
- MIC in Cu(II) supplemented medium [11]: 2 µM
- MIC [11]: 2 µM
- MIC ([12]; MH broth, 12 h, 37° C.): 1 µM
- MIC ([13]; MH broth, 12 h, 37° C.): 1 µM
- MIC ([14]; MH broth, 12 h, 37° C.): 2 µM
- MIC in Cu(II) supplemented medium [8, 28]: 1 µM
- MIC ([8]; MH broth, 12 h, 37° C.): 1 µM
- MIC, TETA ([18]; cell-impermeable Cu(II) chelator triethylenetetramine (TETA) 200 μM): 2 µM
- MIC, TTM ([18]; cell-permeable Cu(II) chelator tetrathiolmolybdate (TTM) 200 μM): 32 µM
- MIC, No Chelator ([18]; no chelator): 1 µM
- MIC [15]: 8 µM
- MIC [19]: 4 µM
- MIC ([16]; Table 3, agent alone): >32 µM
- MIC [20]: 8 µM
- MBIC [1]: 4 µM
- MBIC [21]: 4 µM
- MBIC [2, 23]: >32 µM
- MBIC [22]: 4 µM
- FICI ([3]; peptide + AmP): 1.52 and 1.5
- FICI ([3]; peptide + CHL): 0.5 and 0.5008
- FICI ([3]; peptide + MER): 0.52
- FICI ([3]; peptide + STR): 1.5
- FICI ([3]; peptide + TRI): 0.5
- FICI ([4]; peptide + AmP): 2.0
- FICI ([4]; peptide + CHL): 2.0
- FICI ([4]; peptide + MER): 0.27
- FICI ([4]; peptide + STR): 0.78 and 0.75
- FICI ([4]; peptide + TRI): 1.5

Compound: GLFDVIKKVASVIGGL-NH2 [Citropin1.1, GLFDVIKKVASVIGGL-NH2, reference compound]
- MIC in Cu(II) supplemented medium ([7]; ATCC 25922): 10 µM
- MIC ([7]; ATCC 25922, 12 h): 10 µM
- MIC [9]: 10 µM
- MIC in Cu(II) supplemented medium [10]: 5 µM
- MIC [10]: 5 µM
- MIC in Cu(II) supplemented medium [11]: 20 µM
- MIC [11]: 20 µM
- MIC ([12]; ATCC 13883, 12 h): 20 µM
- MIC ([13]; ATCC 27853, 12 h): >40 µM
- MIC ([14]; 3730529, 12 h): 10 µM
- MIC in Cu(II) supplemented medium ([8]; ATCC 25923): 3 µM
- MIC ([8]; ATCC 25923, 12 h): 3 µM
- MIC [15]: >40 µM
- MIC ([16]; ATCC13883): >40 µM
- MBIC [1]: >40 µM
- MBIC ([2]; ATCC13883): >40 µM

Compound: KWKLFKKIGAVLKVL [CM15, KWKLFKKIGAVLKVL, reference compound]
- mouse deaths ([17]; 10 mg·Kg^−1 intraperitoneal): led to mouse deaths after two days of treatment
- in vivo toxicity [17]: high in vivo toxicity

Compound: VIHGLFDVIKKVASVIGGL-NH2 [VIH-Citropin1.1]
- MIC in Cu(II) supplemented medium ([7]; ATCC 25922): >33 µM
- MIC ([7]; ATCC 25922, 12 h): >33 µM
- MIC [9]: 33 µM
- MIC in Cu(II) supplemented medium [10]: 16 µM
- MIC [10]: 16 µM
- MIC in Cu(II) supplemented medium [11]: >33 µM
- MIC [11]: >33 µM
- MIC ([12]; ATCC 13883, 12 h): >33 µM
- MIC ([13]; ATCC 27853, 12 h): >33 µM
- MIC ([14]; 3730529, 12 h): 16 µM
- MIC in Cu(II) supplemented medium ([8]; ATCC 25923): 4 µM
- MIC ([8]; ATCC 25923, 12 h): 4 µM
- MIC [15]: >33 µM
- MIC ([16]; ATCC13883): >33 µM
- MBIC [1]: >33 µM
- MBIC ([2]; ATCC13883): >33 µM
